One experiment concerns E. coli GC2270 (tet(M)). The experiment can be described thus: MIC broth microdilution, E. coli GC2270 (tet(M)). Format: cell-based. Conditions: MHBII, 18-22 hours at 35° C. The method in brief:
(§1)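 MIC determined by NCCLS-recommended broth microdilution. Organisms grown at 10^5 CFU/ml in Mueller-Hinton II broth against serially diluted compound, 18-22 hours at 35° C.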

In experiment [1] the test system is E. coli GC4559 (parent GC4560). The experiment can be described thus: MIC broth microdilution, E. coli GC4559 (parent GC4560). Format: cell-based. Conditions: MHBII, 18-22 hours at 35° C. Put shortly:
(§2)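 Broth microdilution per NCCLS in Mueller-Hinton II broth, serial compound dilutions inoculated to 10^5 CFU/ml. Plates incubated 18-22 hours at 35° C in ambient air.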

For experiment [2], the system named is E. coli GC4560 (IMP mutant). In words: MIC broth microdilution, E. coli GC4560 (IMP mutant). Format: cell-based. As to conditions: MHBII, 18-22 hours at 35° C. Put shortly:
as §1

Experiment [3] concerns E. coli GC2203 (ATCC Control). The experiment can be described thus: MIC broth microdilution, E. coli GC2203 (ATCC Control). Conditions: MHBII, 18-22 hours at 35° C. Format: cell-based. The method in brief:
as §2

For a further experiment, the system named is E. coli GC1073 (tet(B)). In words: MIC broth microdilution, E. coli GC1073 (tet(B)). As to conditions: MHBII, 18-22 hours at 35° C. Format: cell-based. The method in brief: as §1
Experiment [4] has as its system S. aureus GC1131 (Clinical). In words: MIC broth microdilution, S. aureus GC1131 (Clinical). Format: cell-based. Conditions: MHBII, 18-22 hours at 35° C. Put shortly:
as §2

For experiment [5], the system named is S. aureus GC6466 (tet(M)). The experiment can be described thus: MIC broth microdilution, S. aureus GC6466 (tet(M)). Format: cell-based. Conditions: MHBII, 18-22 hours at 35° C. The method in brief: as §2
Experiment [6] concerns S. aureus GC6467 (tet(M) + (K)). In words: MIC broth microdilution, S. aureus GC6467 (tet(M) + (K)). Format: cell-based. As to conditions: MHBII, 18-22 hours at 35° C. Put shortly:
as §1

For experiment [7], the system named is S. aureus GC1079 (tet(K)). The experiment can be described thus: MIC broth microdilution, S. aureus GC1079 (tet(K)). Conditions: MHBII, 18-22 hours at 35° C. Format: cell-based. Put shortly:
as §2

The test system of experiment [8] is S. aureus GC4536 (Smith MP -In Vivo). The experiment can be described thus: MIC broth microdilution, S. aureus GC4536 (Smith MP -In Vivo). Format: cell-based. As to conditions: MHBII, 18-22 hours at 35° C. The method in brief: as §2
Experiment [9] deals with S. aureus GC2216 (ATCC Control). In words: MIC broth microdilution, S. aureus GC2216 (ATCC Control). Format: cell-based. Conditions: MHBII, 18-22 hours at 35° C. The method in brief: as §2
In experiment [10] the test system is E. faecalis GC4555 (ATCC Control). In words: MIC broth microdilution, E. faecalis GC4555 (ATCC Control). Conditions: MHBII, 18-22 hours at 35° C. Format: cell-based. Put shortly:
as §2

Experiment [11] concerns E. faecalis GC2267 (tet(L) + (M) + (S)). The experiment can be described thus: MIC broth microdilution, E. faecalis GC2267 (tet(L) + (M) + (S)). Format: cell-based. As to conditions: MHBII, 18-22 hours at 35° C. The method in brief: as §1
In experiment [12] the test system is E. faecalis GC2242 (Van-resistant). The experiment can be described thus: MIC broth microdilution, E. faecalis GC2242 (Van-resistant). Format: cell-based. As to conditions: MHBII, 18-22 hours at 35° C. Put shortly: as §2
Experiment [13] concerns S. pneumoniae* GC4465 (Clinical). In words: MIC broth microdilution, S. pneumoniae GC4465 (Clinical). Format: cell-based. As to conditions: 18-22 hours at 35° C. The method in brief: as §2
Experiment [14] relates to S. pneumoniae* GC1894 (Clinical). In words: MIC broth microdilution, S. pneumoniae GC1894 (Clinical). As to conditions: 18-22 hours at 35° C. Format: cell-based. The method in brief: as §2
Experiment [15] concerns S. pyogenes* GC4563 (Clinical). In words: MIC broth microdilution, S. pyogenes GC4563 (Clinical). Format: cell-based. Conditions: 18-22 hours at 35° C. Put shortly:
as §2

The subject of experiment [16] is M. catarrhalis* GC6907 (Clinical). In words: MIC broth microdilution, M. catarrhalis GC6907 (Clinical). As to conditions: 18-22 hours at 35° C. Format: cell-based. The method in brief: as §2
For experiment [17], the system named is H. influenzae<> GC6896 (ATCC Control). In words: MIC broth microdilution, H. influenzae GC6896 (ATCC Control). Format: cell-based. As to conditions: 18-22 hours at 35° C. The method in brief: as §2
In experiment [18] the test system is C. albicans GC3066 ATCC (Control). The experiment can be described thus: MIC broth microdilution, C. albicans GC3066 ATCC (Control). As to conditions: 18-22 hours at 35° C. Format: cell-based. Put shortly:
as §2

In experiment [19] the test system is Staphylococcal aureus Smith M P. In words: In vivo antibacterial evaluation, acute lethal infection in mice. As to conditions: Mus musculus; single oral dose 30 minutes after intraperitoneal challenge; female CD-1 mice; 7 day survival ratios, 3 tests pooled; read-out: SOD* ED50.
Experiment [20] has the same test system. The experiment can be described thus: MIC reported in Table 2 beside the in vivo ED50. Format: cell-based. As to conditions: Staphylococcus aureus, infecting strain S. aureus Smith MP.
Experiment [21] shares this test system. In words: In vivo antibacterial evaluation, acute lethal infection in mice. As to conditions: Mus musculus, iv, 168 h; single intraveneous dose; female CD-1 mice; 7 day survival ratios, 3 tests pooled; read-out: SIV* ED50.

SMILES strings stand for the structures. Converted amounts (≈) assume the structure as drawn. Read-outs that look alike come from different tables or passages of the source.

This is an account of results in patent publication US7812008B2, “9-substituted tetracyclines” (Wyeth LLC, priority 2005, dated 2010).

As to `CN(C)c1cc(NC(=O)CN2CCCCO2)c(O)c2c1C[C@H]1C[C@H]3[C@H](N(C)C)C(O)=C(C(N)=O)C(=O)[C@@]3(O)C(O)=C1C2=O` [Example 8, (4S,4aS,5aR,12aS)-4,7-bis(dimethylamino)-3,10,12,12a-tetrahydroxy-9-[(1,2-oxazinan-2-ylacetyl)amino]-1,11-dioxo-1,4,4a,5,5a,6,11,12a-octahydrotetracene-2-carboxamide], the “minimum inhibitory concentration (MIC)” value is greater than 64 with E. coli GC2270 (tet(M)); greater than 64 in [1]; 2 in experiment [2]; greater than 64 in experiment [3]; greater than 64 in the experiment with E. coli GC1073 (tet(B)); 4 in experiment [4]. For the same compound, the “minimum inhibitory concentration (MIC)” value in experiment [5] stood at 2; in experiment [6] it was 64; in experiment [7] it was 16; in [8], 2; in experiment [9], 2; in experiment [10], 2. Further, the “minimum inhibitory concentration (MIC)” value in [11] turned out to be 8; in [12], 2; in [13], 1; in experiment [14], 0.50; in experiment [15], 1; in experiment [16], 1. For the same compound, the results for the “minimum inhibitory concentration (MIC)” value in experiment [17] and in [18] were 64 and greater than 64, respectively. For the same compound, the values for the ED50 in [19] and in [21] were 3.59 mg/kg and 0.56 mg/kg, respectively. The compound also gave an MIC in experiment [20] of 2 µg/mL (≈ 3.34 µM).
